Measured values as given in patent US7604949B2, “Methods and compositions that affect melanogenesis” (New York University, priority 1999, dated 2009).

How the values were obtained:
[1] = tested on: melan-p1 cells; test: Melanin content of melan-p1 cells with protease inhibitor; type: cell-based, mouse; conditions: melan-p1, high concentrations of tyrosine
Protocol: (§1) (A) Melan-p1 cells incubated in low (0.03 mM) tyrosine and high (0.3 mM) tyrosine (TYR) were treated for 48 hours with increasing concentrations of the protease inhibitor E64 (μM). The tyrosinase activity in the media is expressed as a percentage of total activity in the extract and medium. (B) The concentration of melanin was determined by solubilizing the cell pellet and measuring the absorbance at 470 nm.
(§2) If proteolysis and secretion of tyrosinase were the precipitating factor in the misrouting of tyrosinase, then E64 should increase melanin accumulation in melan-p1 cells. […] A range of E64 concentrations was tested at low (0.03 mM) and high (0.3 mM) tyrosine.

[2] = tested on: melan-p1 cells; test: Secretion of tyrosinase into medium of melan-p1 cells with protease inhibitor; type: cell-based, mouse
Protocol: as §1
Tyrosinase is a type I membrane protein anchored in the membrane, and it is thus likely that proteolysis, which leads to the clipping of the tail, is required for secretion. The truncated protein would not be detected by αPEP7, which is directed against the tail, although the catalytic domains would remain functional. We, therefore, examined the effects of a series of protease inhibitors on the secretion of tyrosinase by melan-a and melan-p1 cells.
as §2

SMILES: CC(C)C[C@H](NC(=O)[C@H]1O[C@@H]1C(=O)O)C(=O)NCCCCN=C(N)N [E64]
- intracellular melanin production [1]: reduced intracellular melanin production
- tyrosinase activity in the media as percentage of total activity in extract and medium ([2]; melan-p1, 0.03 mM tyrosine, 12.5 μM E64, 48 hours (untreated 7.1%)): 4.0%
- tyrosinase activity in the media as percentage of total activity in extract and medium ([2]; melan-p1, 0.03 mM tyrosine, 25 μM E64, 48 hours (untreated 7.1%)): 3.8%
- tyrosinase activity in the media as percentage of total activity in extract and medium ([2]; melan-p1, 0.3 mM tyrosine, E64, 48 hours (untreated 6.5%)): 3.9%
